Data published in patent publication US7897626B2, “2-substituted thiazole-4-carboxamide derivatives, their preparation and use as pharmaceuticals” (Bayer Schering Pharma AG, priority 2007, dated 2011).

Test system: TLR7
Assay: TLR-induced cytokine release (TNF-alpha) in human PBMC, TLR7 ligand stimulation
Assay type: cell-based
Settings: human PBMC incubated 18 hours with test substance and TLR7 ligand; TNF-alpha in supernatant by ELISA; read-out: EC50 (TNF-α TLR7)
Protocol: TLR-Induced Cytokine Release in Human “Peripheral Blood Mononuclear Cells” (PBMC)
PBMCs isolated from human whole blood are stimulated using a TLR ligand.
The cytokine determination is carried out by means of ELISA kits; a proliferation/cell metabolism determination is carried out using Alamar Blue.
For the cell preparation, about 200 ml of blood are treated with an anticoagulant (e.g. citrate Monovettes). Per Leucosep tube, 15 ml of Histopaque (room temperature, RT) are poured in and forced downwards through the inserted frit by brief initial centrifugation (one minute at 1000×g, RT). 20 ml of blood are added to the tubes prepared in this way and centrifuged at 800×g for 15 minutes (RT). After centrifugation, the following layered arrangement results from the top to the bottom:
plasma-PBMC-Histopaque-filter disc-Histopaque-erythrocytes and granulocytes. The supernatant plasma is aspirated. The PBMC are transferred together with the underlying Histopaque to a new 50 ml tube, the contents of two Leucosep tubes always being added to one 50 ml tube. The 50 ml tubes are then filled to 50 ml with PBS. This cell suspension is centrifuged at 300×g (RT) for 10 minutes.
The liquid supernatant is tipped off and the cell pellet is resuspended with a little PBS and subsequently filled to 50 ml with PBS. This washing step is repeated twice. The resulting pellet is taken up in a defined volume of medium (with additives). For the testing of the substances, PBMC are incubated for 18 hours with titrated concentrations of the test substances, e.g. in the presence or absence of TLR7 or TLR9 ligands. On the next day, the supernatants are investigated for the content of TNF-alpha or other cytokines or chemokines by means of specific ELISA. The metabolic activity of the treated cells is determined with the aid of Alamar Blue.

EC50 [nM]	Structure (SMILES)
50	Cn1cc(NC(=O)c2csc(-c3cn[nH]c3)n2)c(C(N)=O)n1 [Example 1, 2-(1H-Pyrazol-4-yl)thiazole-4-(3-carbamoyl-1-methyl-1H-pyrazol-4-yl)-carboxamide]
3800	Cc1cc(-c2nc(C(=O)Nc3ccccc3C(N)=O)cs2)cs1 [Example 2, N-[2-(Aminocarbonyl)phenyl]-2-(5-methyl-3-thienyl)-4-thiazole-carboxamide]
120	Cc1ccc(C(N)=O)c(NC(=O)c2csc(-c3cn[nH]c3)n2)c1 [Example 3, N-[2-(Aminocarbonyl)-5-methylphenyl]-2-(1H-pyrazol-4-yl)thiazole-4-carboxamide]
